Measurements published in patent publication US8952024B2, “Herbicidal pyrimidone derivatives” (E I du Pont de Nemours and Company, priority 2009, dated 2015).

What was measured:
Assay type in all cases: in vivo
[1] = test system: Russian thistle (Salsola kali); experiment: Test B pre-/postemergence plant response; details: Preemergence
Summary of the method: (§1)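 Test compounds, formulated in a non-phytotoxic solvent mixture with surfactant, are applied to the soil surface (loam and sand blend) right after seeding, or sprayed over plants at the 1- to 4-leaf stage grown in peat moss/vermiculite medium. After 13 to 15 days under glasshouse conditions, each species is scored visually from 0 (no effect) to 100 (complete control) against controls.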

[2] = test system: nutsedge (purple nutsedge, Cyperus rotundus); experiment: Test D pre-/postemergence plant response; details: Postemergence
Summary of the method: (§2)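 Visual 0–100 scoring (100 = complete control) versus untreated controls after 14–21 greenhouse days. Compounds, formulated in surfactant-containing non-phytotoxic solvent, were applied preemergence to seeded loam/sand and postemergence to 2–18 cm plants (1–4 leaves).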

[3] = test system: quackgrass (Elytrigia repens); experiment: Test D pre-/postemergence plant response; details: Postemergence
Summary of the method: as §2

[4] = test system: chickweed (common chickweed, Stellaria media); experiment: Test D pre-/postemergence plant response; details: Postemergence
Summary of the method: as §2

[5] = test system: buckwheat (wild buckwheat, Polygonum convolvulus); experiment: Test C plant response; details: Postemergence, scale 0 to 100
Text: (§3) Seeds of plant species selected from bluegrass (annual bluegrass, Poa annua), blackgrass (Alopecurus myosuroides), canarygrass (Phalaris minor), chickweed (common chickweed, Stellaria media), galium (catchweed bedstraw, Galium aparine), bromegrass (downy bromegrass, Bromus tectorum), field poppy (Papaver rhoeas), field violet (Viola arvensis), green foxtail (Setaria viridis), deadnettle (henbit deadnettle, Lamium amplexicaule), Italian ryegrass (Lolium multiflorum), kochia (Kochia scoparia), lambsquarters (Chenopodium album), oilseed rape (Brassica napus), pigweed (Amaranthus retroflexus), Russian thistle (Salsola iberica), spring barley (Hordeum vulgare), spring wheat (Triticum aestivum), buckwheat (wild buckwheat, Polygonum convolvulus), wild mustard (Sinapis arvensis), wild oat (Avena fatua), wild radish (Raphanus raphanistrum), windgrass (Apera spica-venti), winter barley (Hordeum vulgare), and winter wheat (Triticum aestivum) were planted and treated postemergence with test chemicals formulated in a non-phytotoxic solvent mixture which included a surfactant. Plants ranged in height from 2 to 18 cm (1- to 4-leaf stage).
(§4) Treated plants and controls were maintained in a controlled growth environment for 14 days after which time all test plants were visually evaluated and compared to controls. Plant response ratings, summarized in Table C, are based on a scale of 0 to 100 where 0 is no effect and 100 is complete control. A dash (-) response means no test result.

[6] = test system: windgrass (Apera spica-venti); experiment: Test C plant response; details: Postemergence, scale 0 to 100
Text: as §3, §4

[7] = test system: chickweed (common chickweed, Stellaria media); experiment: Test C plant response; details: Postemergence, scale 0 to 100
Text: as §3, §4

[8] = test system: field poppy (Papaver rhoeas); experiment: Test C plant response; details: Postemergence, scale 0 to 100
Text: as §3, §4

[9] = test system: winter barley (Hordeum vulgare); experiment: Test C plant response; details: Postemergence, scale 0 to 100
Text: as §3, §4

[10] = test system: deadnettle (henbit deadnettle, Lamium amplexicaule); experiment: Test B pre-/postemergence plant response; details: Postemergence
Summary of the method: as §1

[11] = 62 g ai/ha, scale 0 to 100 (0 no effect, 100 complete control)
[12] = 125 g ai/ha, scale 0 to 100, 0 no effect, 100 complete control
[13] = 31 g ai/ha, scale 0 to 100 (0 no effect, 100 complete control)
[14] = 125 g ai/ha, scale 0 to 100 (0 no effect, 100 complete control)
[15] = 250 g ai/ha, scale 0 to 100 (0 no effect, 100 complete control)
[16] = 31 g ai/ha, 0 to 100 scale (0 no effect, 100 complete control)
[17] = 250 g ai/ha, scale 0 to 100 (0 no effect, 100 complete control), 13 to 15 days

## COCCCn1c(-c2cc(F)cc(F)c2)ncc(C(=O)C2=C(O)CCCC2=O)c1=O [Compound 120]
[1]; [11]
  Plant response rating, Russian Thistle: 80
[1]; [12]
  Plant response rating, Russian Thistle: 80

## CCCc1ncc(C(=O)C2=C(O)CCCC2=O)c(=O)n1-c1ccccc1C [Compound 73]
[1]; [13]
  Plant response rating, Russian Thistle: 0

## COCCn1c(-c2cccc(F)c2)ncc(C(=O)C2=C(O)C3CCC(C3)C2=O)c1=O (stereo not shown) [Compound 235]
[2]; 31 g ai/ha, scale 0 to 100
  Plant response rating, Nutsedge, Purple: 5
[2]; [11]
  Plant response rating, Nutsedge, Purple: 5
[2]; [14]
  Plant response rating, Nutsedge, Purple: 30
[2]; [15]
  Plant response rating, Nutsedge, Purple: 40
[3]; 31 g ai/ha, scale 0 to 100
  Plant response rating, Quackgrass: 5
[3]; [11]
  Plant response rating, Quackgrass: 30
[3]; [14]
  Plant response rating, Quackgrass: 40
[3]; [15]
  Plant response rating, Quackgrass: 70
[4]; 31 g ai/ha, scale 0 to 100
  Plant response rating, Chickweed: 5
[4]; [11]
  Plant response rating, Chickweed: 30
[4]; [14]
  Plant response rating, Chickweed: 60
[4]; [15]
  Plant response rating, Chickweed: 70

## 3-cyclohexyl-5-[(2-hydroxy-6-oxo-1-cyclohexen-1-yl)carbonyl]-2-phenyl-4(3H)-pyrimidinone [Compound 128]
[5]; 31 g ai/ha
  Plant response rating: Buckwheat, Wild: 70
[5]; 16 g ai/ha
  Plant response rating: Buckwheat, Wild: 65
[5]; 62 g ai/ha
  Plant response rating: Buckwheat, Wild: 80
[5]; 125 g ai/ha
  Plant response rating: Buckwheat, Wild: 80
[6]; 31 g ai/ha
  Plant response rating: Windgrass: 70
[6]; 16 g ai/ha
  Plant response rating: Windgrass: 60
[6]; 62 g ai/ha
  Plant response rating: Windgrass: 85
[6]; 125 g ai/ha
  Plant response rating: Windgrass: 95
[7]; 31 g ai/ha
  Plant response rating: Chickweed: 95
[7]; 16 g ai/ha
  Plant response rating: Chickweed: 95
[7]; 62 g ai/ha
  Plant response rating: Chickweed: 98
[7]; 125 g ai/ha
  Plant response rating: Chickweed: 100
[8]; 31 g ai/ha
  Plant response rating: Field Poppy: 30
[8]; 16 g ai/ha
  Plant response rating: Field Poppy: 20
[8]; 62 g ai/ha
  Plant response rating: Field Poppy: 40
[8]; 125 g ai/ha
  Plant response rating: Field Poppy: 70
[9]; 31 g ai/ha
  Plant response rating: Barley, Winter: 20
[9]; 16 g ai/ha
  Plant response rating: Barley, Winter: 0
[9]; 62 g ai/ha
  Plant response rating: Barley, Winter: 40
[9]; 125 g ai/ha
  Plant response rating: Barley, Winter: 60

## CCCc1ncc(C(=O)C2=C(O)CCCC2=O)c(=O)n1CC1CCCO1 (stereo not shown) [Compound 74]
[1]; [13]
  Plant response rating, Russian Thistle: 0
[1]; [11]
  Plant response rating, Russian Thistle: 80
[1]; [12]
  Plant response rating, Russian Thistle: 90
[1]; 250 g ai/ha, 0 to 100 scale
  Russian Thistle plant response rating: 98

## CCCCc1ncc(C(=O)C2=C(O)CCCC2=O)c(=O)n1-c1ccc(C)cc1 [Compound 67]
[1]; [13]
  Plant response rating, Russian Thistle: 85

## O=C1CCCC(O)=C1C(=O)c1cnc(-c2cccs2)n(C2CCCCC2)c1=O [Compound 189]
[10]; [16]
  Plant response rating, Deadnettle: 85
[10]; [14]
  Plant response rating, Deadnettle: 100
[10]; [17]
  Plant response rating, Deadnettle: 100

## Cc1ccccc1-n1c(-c2ccccc2)ncc(C(=O)C2=C(O)CCCC2=O)c1=O [Compound 12]
[5]; 31 g ai/ha
  Plant response rating: Buckwheat, Wild: 15
[5]; 16 g ai/ha
  Plant response rating: Buckwheat, Wild: 10
[5]; 62 g ai/ha
  Plant response rating: Buckwheat, Wild: 50
[5]; 125 g ai/ha
  Plant response rating: Buckwheat, Wild: 50
[6]; 31 g ai/ha
  Plant response rating: Windgrass: 20
[6]; 16 g ai/ha
  Plant response rating: Windgrass: 5
[6]; 125 g ai/ha
  Plant response rating: Windgrass: 50
[9]; 31 g ai/ha
  Plant response rating: Barley, Winter: 0
[9]; 16 g ai/ha
  Plant response rating: Barley, Winter: 0
[9]; 62 g ai/ha
  Plant response rating: Barley, Winter: 0
[9]; 125 g ai/ha
  Plant response rating: Barley, Winter: 0

## O=C1CCCC(O)=C1C(=O)c1cnc(-c2ccc(F)cc2)n(C2CCCCC2)c1=O [Compound 197]
[10]; [16]
  Plant response rating, Deadnettle: 100
[10]; [11]
  Plant response rating, Deadnettle: 100
[10]; [14]
  Plant response rating, Deadnettle: 100
[10]; [17]
  Plant response rating, Deadnettle: 100
